# From PubChem BioAssay (NCI)
#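 Growth conditions: 96-well plates. Treatment: test compound, 48 hours, 5 concentrations. Analysis: linear interpolation between bracketing concentrations; unreached endpoints set to highest concentration. Here, GI50 denotes the concentration required for 50% inhibition of growth. The concentration for full growth arrest is given as TGI.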
# Columns and labels:
# Assay in all cases: inhibition of tumour cell growth, NCI panel, 48 h
# UACC-62 melanoma = tested on: UACC-62 melanoma
# DU-145 prostate = tested on: DU-145 prostate
# CAKI-1 renal = tested on: CAKI-1 renal
# ACHN renal = tested on: ACHN renal
# SN12C renal = tested on: SN12C renal
# OVCAR-8 ovarian = tested on: OVCAR-8 ovarian
# NCI-H460 lung = tested on: NCI-H460 lung
# SK-MEL-2 melanoma = tested on: SK-MEL-2 melanoma
# SK-MEL-28 melanoma = tested on: SK-MEL-28 melanoma
# MCF7 breast = tested on: MCF7 breast
# NCI/ADR-RES ovarian = tested on: NCI/ADR-RES ovarian
# HL-60(TB) leukemia = tested on: HL-60(TB) leukemia
# RXF 393 renal = tested on: RXF 393 renal
# CCRF-CEM leukemia = tested on: CCRF-CEM leukemia
# HT29 colon = tested on: HT29 colon
# MDA-MB-231 breast = tested on: MDA-MB-231 breast
# 786-0 renal = tested on: 786-0 renal
# HS 578T breast = tested on: HS 578T breast
# SF-268 CNS = tested on: SF-268 CNS
# HCT-15 colon = tested on: HCT-15 colon
# MDA-MB-435 = tested on: MDA-MB-435
# K-562 leukemia = tested on: K-562 leukemia
# LOX IMVI melanoma = tested on: LOX IMVI melanoma
# SR leukemia = tested on: SR leukemia
# OVCAR-5 ovarian = tested on: OVCAR-5 ovarian
# SK-MEL-5 melanoma = tested on: SK-MEL-5 melanoma
# SNB-75 CNS = tested on: SNB-75 CNS
# A498 renal = tested on: A498 renal
# MOLT-4 leukemia = tested on: MOLT-4 leukemia
# IGROV1 ovarian = tested on: IGROV1 ovarian
# OVCAR-4 ovarian = tested on: OVCAR-4 ovarian
# M14 melanoma = tested on: M14 melanoma
# KM12 colon = tested on: KM12 colon
# HOP-92 NSCLC = tested on: HOP-92 NSCLC
# SNB-19 CNS = tested on: SNB-19 CNS
# HCC-2998 colon = tested on: HCC-2998 colon
# SF-295 CNS = tested on: SF-295 CNS
# HCT-116 colon = tested on: HCT-116 colon
# RPMI-8226 leukemia = tested on: RPMI-8226 leukemia
# NCI-H226 lung = tested on: NCI-H226 lung
# HOP-62 NSCLC = tested on: HOP-62 NSCLC
# NCI-H522 lung = tested on: NCI-H522 lung
# UO-31 renal = tested on: UO-31 renal
# OVCAR-3 ovarian = tested on: OVCAR-3 ovarian
# T-47D breast = tested on: T-47D breast
# SK-OV-3 ovarian = tested on: SK-OV-3 ovarian
# UACC-257 melanoma = tested on: UACC-257 melanoma
# SW-620 colon = tested on: SW-620 colon
# SF-539 CNS = tested on: SF-539 CNS
# COLO 205 colon = tested on: COLO 205 colon
# PC-3 prostate = tested on: PC-3 prostate
# U251 CNS = tested on: U251 CNS
# MALME-3M melanoma = tested on: MALME-3M melanoma
# NCI-H23 lung = tested on: NCI-H23 lung
# A549 NSCLC = tested on: A549 NSCLC
# BT-549 breast = tested on: BT-549 breast
# TK-10 renal = tested on: TK-10 renal
# EKVX NSCLC = tested on: EKVX NSCLC
smiles,measurement,setting,value
CCOc1ccc(N(C)c2ccc(/C=C/C3=[N+](C)c4ccccc4C3(C)C)cc2)cc1,GI50,UACC-62 melanoma,444 nM
same,TGI,UACC-62 melanoma,2160 nM
same,GI50,DU-145 prostate,421 nM
same,TGI,DU-145 prostate,1860 nM
same,GI50,CAKI-1 renal,784 nM
same,TGI,CAKI-1 renal,2480 nM
same,GI50,ACHN renal,306 nM
same,TGI,ACHN renal,1110 nM
same,GI50,SN12C renal,309 nM
same,TGI,SN12C renal,1520 nM
same,GI50,OVCAR-8 ovarian,117 nM
same,TGI,OVCAR-8 ovarian,1170 nM
same,GI50,NCI-H460 lung,306 nM
same,TGI,NCI-H460 lung,1380 nM
same,GI50,SK-MEL-2 melanoma,361 nM
same,TGI,SK-MEL-2 melanoma,1250 nM
same,GI50,SK-MEL-28 melanoma,680 nM
same,TGI,SK-MEL-28 melanoma,2110 nM
same,GI50,MCF7 breast,498 nM
same,TGI,MCF7 breast,2790 nM
same,GI50,NCI/ADR-RES ovarian,2430 nM
same,TGI,NCI/ADR-RES ovarian,16600 nM
same,GI50,HL-60(TB) leukemia,59 nM
same,TGI,HL-60(TB) leukemia,257 nM
same,GI50,RXF 393 renal,471 nM
same,TGI,RXF 393 renal,1950 nM
same,GI50,CCRF-CEM leukemia,84.1 nM
same,TGI,CCRF-CEM leukemia,647 nM
same,GI50,HT29 colon,137 nM
same,TGI,HT29 colon,1060 nM
same,GI50,MDA-MB-231 breast,485 nM
same,TGI,MDA-MB-231 breast,2220 nM
same,GI50,786-0 renal,562 nM
same,TGI,786-0 renal,1920 nM
same,GI50,HS 578T breast,314 nM
same,TGI,HS 578T breast,2000 nM
same,GI50,SF-268 CNS,933 nM
same,TGI,SF-268 CNS,2650 nM
same,GI50,HCT-15 colon,596 nM
same,TGI,HCT-15 colon,2110 nM
same,GI50,MDA-MB-435,231 nM
same,TGI,MDA-MB-435,1320 nM
same,GI50,K-562 leukemia,359 nM
same,TGI,K-562 leukemia,10300 nM
same,GI50,LOX IMVI melanoma,133 nM
same,TGI,LOX IMVI melanoma,364 nM
same,GI50,SR leukemia,49.9 nM
same,TGI,SR leukemia,633 nM
same,GI50,OVCAR-5 ovarian,1280 nM
same,TGI,OVCAR-5 ovarian,2920 nM
same,GI50,SK-MEL-5 melanoma,192 nM
same,TGI,SK-MEL-5 melanoma,784 nM
same,GI50,SNB-75 CNS,1130 nM
same,TGI,SNB-75 CNS,2760 nM
same,GI50,A498 renal,189 nM
same,TGI,A498 renal,10200 nM
same,GI50,MOLT-4 leukemia,193 nM
same,TGI,MOLT-4 leukemia,709 nM
same,GI50,IGROV1 ovarian,257 nM
same,TGI,IGROV1 ovarian,982 nM
same,GI50,OVCAR-4 ovarian,399 nM
same,TGI,OVCAR-4 ovarian,2180 nM
same,GI50,M14 melanoma,366 nM
same,TGI,M14 melanoma,1730 nM
same,GI50,KM12 colon,219 nM
same,TGI,KM12 colon,1050 nM
same,GI50,HOP-92 NSCLC,197 nM
same,TGI,HOP-92 NSCLC,860 nM
same,GI50,SNB-19 CNS,367 nM
same,TGI,SNB-19 CNS,1800 nM
same,GI50,HCC-2998 colon,391 nM
same,TGI,HCC-2998 colon,1550 nM
same,GI50,SF-295 CNS,470 nM
same,TGI,SF-295 CNS,3890 nM
same,GI50,HCT-116 colon,72.5 nM
same,TGI,HCT-116 colon,1100 nM
same,GI50,RPMI-8226 leukemia,139 nM
same,TGI,RPMI-8226 leukemia,602 nM
same,GI50,NCI-H226 lung,369 nM
same,TGI,NCI-H226 lung,2180 nM
same,GI50,HOP-62 NSCLC,482 nM
same,TGI,HOP-62 NSCLC,1910 nM
same,GI50,NCI-H522 lung,167 nM
same,TGI,NCI-H522 lung,780 nM
same,GI50,UO-31 renal,449 nM
same,TGI,UO-31 renal,1790 nM
same,GI50,OVCAR-3 ovarian,151 nM
same,TGI,OVCAR-3 ovarian,1090 nM
same,GI50,T-47D breast,392 nM
same,TGI,T-47D breast,2670 nM
same,GI50,SK-OV-3 ovarian,354 nM
same,TGI,SK-OV-3 ovarian,1440 nM
same,GI50,UACC-257 melanoma,188 nM
same,TGI,UACC-257 melanoma,861 nM
same,GI50,SW-620 colon,175 nM
same,TGI,SW-620 colon,1190 nM
same,GI50,SF-539 CNS,771 nM
same,TGI,SF-539 CNS,2200 nM
same,GI50,COLO 205 colon,211 nM
same,TGI,COLO 205 colon,810 nM
same,GI50,PC-3 prostate,75.9 nM
same,TGI,PC-3 prostate,793 nM
same,GI50,U251 CNS,122 nM
same,TGI,U251 CNS,1170 nM
same,GI50,MALME-3M melanoma,184 nM
same,TGI,MALME-3M melanoma,848 nM
same,GI50,NCI-H23 lung,125 nM
same,TGI,NCI-H23 lung,1340 nM
same,GI50,A549 NSCLC,201 nM
same,TGI,A549 NSCLC,1350 nM
same,GI50,BT-549 breast,216 nM
same,TGI,BT-549 breast,1160 nM
COc1cc2nc(-c3cccs3)nc(Nc3cccc([N+](=O)[O-])c3)c2cc1OC,TGI,UACC-62 melanoma,31100 nM
same,TGI,DU-145 prostate,30000 nM
same,TGI,CAKI-1 renal,36800 nM
same,TGI,ACHN renal,38300 nM
same,TGI,SN12C renal,33200 nM
same,TGI,OVCAR-8 ovarian,56800 nM
same,TGI,NCI-H460 lung,77100 nM
same,TGI,SK-MEL-2 melanoma,39800 nM
same,TGI,SK-MEL-28 melanoma,58000 nM
same,TGI,MCF7 breast,59100 nM
same,TGI,TK-10 renal,37000 nM
same,TGI,NCI/ADR-RES ovarian,46900 nM
same,TGI,HL-60(TB) leukemia,> 100000 nM
same,TGI,RXF 393 renal,74100 nM
same,TGI,CCRF-CEM leukemia,> 100000 nM
same,TGI,HT29 colon,> 100000 nM
same,TGI,MDA-MB-231 breast,35900 nM
same,TGI,786-0 renal,40900 nM
same,TGI,HS 578T breast,70500 nM
same,TGI,SF-268 CNS,43600 nM
same,TGI,HCT-15 colon,31800 nM
same,TGI,MDA-MB-435,31600 nM
same,TGI,K-562 leukemia,> 100000 nM
same,TGI,LOX IMVI melanoma,45700 nM
same,TGI,SR leukemia,34200 nM
same,TGI,OVCAR-5 ovarian,41400 nM
same,TGI,SK-MEL-5 melanoma,> 100000 nM
same,TGI,SNB-75 CNS,78800 nM
same,TGI,A498 renal,> 100000 nM
same,TGI,MOLT-4 leukemia,> 100000 nM
same,TGI,IGROV1 ovarian,32200 nM
same,TGI,EKVX NSCLC,33100 nM
same,TGI,OVCAR-4 ovarian,> 100000 nM
same,TGI,M14 melanoma,33500 nM
same,TGI,KM12 colon,40600 nM
same,TGI,SNB-19 CNS,33600 nM
same,TGI,SF-295 CNS,42400 nM
same,TGI,HCT-116 colon,32800 nM
same,TGI,RPMI-8226 leukemia,98300 nM
same,TGI,NCI-H226 lung,58700 nM
same,TGI,HOP-62 NSCLC,36100 nM
same,TGI,NCI-H522 lung,38100 nM
same,TGI,UO-31 renal,43900 nM
same,TGI,OVCAR-3 ovarian,36600 nM
same,TGI,T-47D breast,38600 nM
same,TGI,SK-OV-3 ovarian,41500 nM
same,TGI,UACC-257 melanoma,44200 nM
same,TGI,SW-620 colon,50700 nM
same,TGI,SF-539 CNS,34000 nM
same,TGI,COLO 205 colon,54100 nM
same,TGI,PC-3 prostate,37800 nM
same,TGI,U251 CNS,32400 nM
same,TGI,MALME-3M melanoma,35200 nM
same,TGI,NCI-H23 lung,28900 nM
same,TGI,A549 NSCLC,53800 nM
same,TGI,BT-549 breast,39700 nM
